Assay results: publication PMC12282101, “Heat shock protein 90 chaperone activity is required for hepatitis A virus replication” (Journal of Virology, 2025)
Counter-ions that a name gives are not always drawn.

Key:
18f-NLuc reporter virus = test: microbe, parasite or virus in culture; type: cell-based, Hepatitis A virus; settings: for activity at 10 µM: Hepatovirus A, Huh-7.5.1, 72 h, read-out: Normalized HAV production
Huh-7.5.1 cells = test: Cell viability in the chemical screen (Cell TiterGlo); settings: 10 µM compound, 72 h

| Compound | activity at 10 µM (18f-NLuc reporter virus) [%] | Viability Percent DMSO (Huh-7.5.1 cells) [Percent DMSO] | Normalized HAV production (18f-NLuc reporter virus) |
| --- | --- | --- | --- |
| CC1(C)S[C@@H]2[C@H](NC(=O)[C@H](NC(=O)N3CCNC3=O)c3ccccc3)C(=O)N2[C@H]1C(=O)O [Azlocillin sodium] | 132 | 98 | – |
| Cc1cc(O)cc(C)c1Cl [Chloroxylenol] | 90 | 108 | – |
| O=c1[nH]c(=O)n([C@H]2C[C@H](O)[C@@H](CO)O2)cc1C(F)(F)F [Trifluridine] | 107 | 96 | – |
| Nc1ncnc2c1ncn2[C@@H]1O[C@H](COP(=O)(O)O)[C@@H](O)[C@H]1O.O [Adenosine 5'-monophosphate monohydrate] | 93 | 115 | – |
| O=c1[nH]c(=O)n([C@H]2C[C@H](O)[C@@H](CO)O2)cc1F [Floxuridine] | 42 | 86 | – |
| Cc1ccnc2c1NC(=O)c1cccnc1N2C1CC1 [Nevirapine] | 104 | 100 | – |
| C[C@@H]1CCO[C@H]2Cn3cc(C(=O)NCc4ccc(F)cc4F)c(=O)c(O)c3C(=O)N12 [Dolutegravir] | 49 | 159 | – |
| NC(=O)N1CCC(CC(=O)N2CCC([C@H]3c4ncc(Br)cc4CCc4cc(Cl)cc(Br)c43)CC2)CC1 [Lonafarnib] | 18 | 167 | – |
| Cc1cc(C#N)cc(C)c1Oc1nc(Nc2ccc(C#N)cc2)nc(N)c1Br [Etravirine] | 113 | 112 | – |
| CC1(C)[C@@H](O[C@H]2O[C@H](C(=O)O)[C@@H](O)[C@H](O)[C@H]2O[C@@H]2O[C@H](C(=O)O)[C@@H](O)[C@H](O)[C@H]2O)CC[C@]2(C)[C@H]3C(=O)C=C4[C@@H]5C[C@@](C)(C(=O)O)CC[C@]5(C)CC[C@@]4(C)[C@]3(C)CC[C@@H]12.N.N [Diammonium Glycyrrhizinate] | – | 116 | 0.78 |
| C[C@H](Cn1cnc2c(N)ncnc21)OCP(=O)(O)O [Tenofovir] | 128 | 118 | – |
| CN(C)CC[C@@H](c1ccc(Cl)cc1)c1ccccn1 [Dexchlorpheniramine Maleate] | 74 | 118 | – |
| C=C(C)[C@@H]1CC[C@]2(CO)CC[C@]3(C)[C@H](CC[C@@H]4[C@@]5(C)CC[C@H](O)C(C)(C)[C@@H]5CC[C@]43C)[C@@H]12 [Betulin] | 119 | 123 | – |
| COc1ccc([C@H]2OC[C@H]3[C@@H]2CO[C@H]3c2ccc(O[C@@H]3O[C@H](CO)[C@@H](O)[C@H](O)[C@H]3O)c(OC)c2)cc1OC [Forsythin] | – | 127 | 1.06 |
| O=C(Nc1nc2ccc3scnc3c2s1)c1ccc2ccccc2c1 [KIN1148] | – | 107 | 1.39 |
| CC(=O)N(CC(O)CO)c1c(I)c(C(=O)NCC(O)CO)c(I)c(C(=O)NCC(O)CO)c1I (stereo not shown) [Iohexol] | 157 | 74 | – |
| Cc1c(O)cccc1C(=O)N[C@@H](CSc1ccccc1)[C@H](O)CN1C[C@H]2CCCC[C@H]2C[C@H]1C(=O)NC(C)(C)C [Nelfinavir Mesylate] | 69 | 88 | – |
| CC(C)OC(=O)C1=CN(C(=O)c2ccc(F)c(F)c2)CC(C)(C)c2c1[nH]c1ccccc21 [Turofexorate Isopropyl] | 100 | 161 | – |
| COc1cnc(-n2cnc(C)n2)c2c1c(C(=O)C(=O)N1CCN(C(=O)c3ccccc3)CC1)cn2COP(=O)(O)O [Fostemsavir] | 92 | 129 | – |
| Nc1nc2c(ncn2COCCO)c(=O)[nH]1 [Aciclovir] | 99 | 110 | – |
| CC(C)c1nc(CN(C)C(=O)N[C@H](C(=O)N[C@@H](Cc2ccccc2)C[C@H](O)[C@H](Cc2ccccc2)NC(=O)OCc2cncs2)C(C)C)cs1 [Ritonavir] | 34 | – | – |
| Clc1ccccc1C(c1ccccc1)(c1ccccc1)n1ccnc1 [Clotrimazole] | 85 | – | – |
| COC(=O)C1=C(C)NC(c2ncc(F)cc2F)=NC1c1ccc(F)cc1Cl (racemic) [Bay 41-4109 racemate] | – | – | 0.84 |
| Clc1ccc(COC(Cn2ccnc2)c2ccc(Cl)cc2Cl)c(Cl)c1 (stereo not shown) [Miconazole] | 74 | – | – |
| O=C[C@H](O)[C@H]1OC(=O)[C@@H](O)[C@H]1O [Dicurone] | – | – | 1.16 |
| Clc1ccc(COC(Cn2ccnc2)c2ccc(Cl)cc2Cl)cc1 (stereo not shown) [Econazole] | 100 | – | – |
